Data on 14 compounds can be found in patent US20230042881A1, “MODULATORS OF INTEGRATED STRESS RESPONSE PATHWAY” (Praxis Biotech LLC, priority 2021, published 2023).

Molecules are shown by their SMILES. pIC50: −log10 of the molar value. Read-outs that look alike come from different tables or passages of the source. A value given as a limit tells only on which side of the number the result lay.

In assay [1] the test system is ATF4. Put plainly: ATF4 expression inhibition assay (ATF4 5′UTR luciferase reporter, thapsigargin-stressed). Format: cell-based. The note with it: Homo sapiens, HEK-293T, read-out: ATF4 inhibition. The method, then:
The ATF4 reporter was prepared by fusing the human full length 5′UTR of ATF4 (NCBI Accession No. BC022088.2) upstream of the firefly luciferase coding sequence lacking the initiator methionine. The fused sequence was cloned into pLenti-EF1a-C-Myc-DDK-IRES-Puro cloning vector (Origen #PS100085) using standard methods.
HEK293T cells carrying the ATF4 luciferase reporter were plated on 96-well plates (Nunc) at 10,000 cells per well. Cells were treated two days after seeding with 100 nM thapsigargin (Tg) (Sigma-Aldrich #T9033) in the presence of different concentrations of selected compounds ranging from 0.1 nM to […]. Cells without treatment or cells treated with Tg alone were used as controls. Assay plates containing cells were incubated for 3 hours at 37° C.
Luciferase reactions were performed using Luciferase Assay System (Promega #E1501) as specified by the manufacturer. Luminescence was read with an integration time of 1 s and a gain of 110 using a Cytation-5 multi-mode microplate reader (BioTek).
(Reporter assays use an easily measured gene product as a stand-in for the process of interest.)

Assay [2] relates to Chinese hamster ovary (CHO) cells. Put plainly: Protein synthesis assay (puromycin incorporation, Western blot). The class given is cell-based. Conditions: Cricetulus griseus, read-out: % Protein synthesis relative to untreated (1 μM test compound). As to the method:
Chinese hamster ovary (CHO) cells were maintained at 37° C. and 5% CO2 in Dulbecco's Modified Eagle's Media (DMEM) supplemented with 10% fetal bovine serum, 2 mM L-glutamine, 100 U/ml penicillin, and 100 μg/ml streptomycin. After reaching 80% of confluence, cells were detached and seeded on 6 well plates in complete media, allowed to recover overnight and treated for 2 hours with 1 μM of the test compound (to assess protein synthesis levels in unstressed condition), or for 2 hours with 300 nM Tg in the presence of 1 μM of the test compound (to assess the recovery of protein synthesis in a stressed condition). Cells with Tg alone were used as controls.
After the 2 hours treatments, media were replaced by adding 10 μg/ml puromycin (Sigma Aldrich #P8833) in complete media for 30 min. Media were removed and cells were lysed with SDS-PAGE lysis buffer. Lysates were transferred to 1.5 ml tubes and sonicated for 3 min and total protein amount were quantified using BCA Protein Assay Kit (Pierce). Equal amount of protein (30 μg) was loaded on SDS-PAGE gels.
A HRP-conjugated secondary antibody (Rockland) was employed to detect immune-reactive bands using enhanced chemiluminescence (ECL Western Blotting Substrate, Pierce). Quantification of protein bands was done by densitometry using ImageJ software.
The percentage levels were normalized to the media alone condition, which correspond to 100% protein synthesis. […]

Setting [3] is: HEK293T cells carrying ATF4 luciferase reporter, 100 nM thapsigargin (Tg), 3 hours at 37° C.
Where [4] appears, read: unstressed CHO cells (without Tg), 2 hours, 1 μM test compound, media alone = 100%.

`O=C(COc1ccc(Cl)c(F)c1)N[C@H]1CC[C@H](C(=O)NCC2CNc3cc(Cl)ccc3O2)CC1` (stereo partly drawn) [Compound 67, trans-N-((6-chloro-3,4-dihydro-2H-benzo[b][1,4]oxazin-2-yl)methyl)-4-(2-(4-chloro-3-fluorophenoxy)acetamido)cyclohexanecarboxamide]: the pIC50 in assay [1] (setting [3]) was greater than 8.00. For the same compound, the activity at 1 µM in assay [2] (setting [4]) amounted to 109%.

Regarding `O=C(COc1ccc(Cl)c(F)c1)NN1CCC(C(=O)NCC2CNc3cc(Cl)ccc3O2)CC1` (stereo not shown) [Compound 68, N-((6-chloro-3,4-dihydro-2H-benzo[b][1,4]oxazin-2-yl)methyl)-1-(2-(4-chloro-3-fluorophenoxy)acetamido)piperidine-4-carboxamide], in assay [1] (setting [3]), the pIC50 is greater than 8.00. Also, the activity at 1 µM in assay [2] (setting [4]) is 98.3%.

In the case of `O=C(N[C@H]1CC[C@H](C(=O)NCC2CNc3cc(Cl)ccc3O2)CC1)c1ccc2cc(Cl)ccc2n1` (stereo partly drawn) [Compound 71, trans-6-chloro-N-(4-(((6-chloro-3,4-dihydro-2H-benzo[b][1,4]oxazin-2-yl)methyl)carbamoyl)cyclohexyl)quinoline-2-carboxamide], the pIC50 in assay [1] (setting [3]) is greater than 8.00. Also, the activity at 1 µM in assay [2] (setting [4]) is 174%.

As for `O=C(NN1CCC(C(=O)NCC2CNc3cc(Cl)ccc3O2)CC1)c1ccc2cc(Cl)ccc2n1` (stereo not shown) [Compound 72, 6-chloro-N-(4-(((6-chloro-3,4-dihydro-2H-benzo[b][1,4]oxazin-2-yl)methyl)carbamoyl)piperidin-1-yl)quinoline-2-carboxamide], the pIC50 in assay [1] (setting [3]) was greater than 8.00. The activity at 1 µM in assay [2] (setting [4]) was 92.2%.

As to `O=C(N[C@H]1CC[C@H](C(=O)NCC2CNc3cc(Cl)ccc3O2)CC1)c1cc2cc(Cl)ccc2o1` (stereo partly drawn) [Compound 75, 5-chloro-N-(trans-4-(((6-chloro-3,4-dihydro-2H-benzo[b][1,4]oxazin-2-yl)methyl)carbamoyl)cyclohexyl)benzofuran-2-carboxamide], the pIC50 in assay [1] (setting [3]) was greater than 8.00. Also, in assay [2] (setting [4]), the activity at 1 µM is 114%.

Consider `O=C(N[C@H]1CC[C@H](C(=O)NCC2CNc3cc(Cl)ccc3O2)CC1)C1CNc2cc(Cl)ccc2O1` (stereo partly drawn) [Compound 77, 6-chloro-N-(trans-4-(((6-chloro-3,4-dihydro-2H-benzo[b][1,4]oxazin-2-yl)methyl)carbamoyl)cyclohexyl)-3,4-dihydro-2H-benzo[b][1,4]oxazine-2-carboxamide], for which the pIC50 in assay [1] (setting [3]) was 7.00 to 8.00. Besides, the activity at 1 µM in assay [2] (setting [4]) was 76.6%.

With `O=C(COc1ccc(Cl)c(F)c1)NN1CCC(C(=O)Nc2nc3cc(Cl)ccc3o2)CC1` [Compound 97, 1-(2-(4-chloro-3-fluorophenoxy)acetamido)-N-(5-chlorobenzo[d]oxazol-2-yl)piperidine-4-carboxamide], the pIC50 in assay [1] (3 h) is 7.00 to 8.00. Also, the activity at 1 µM in assay [2] (CHO, 2 h) was 71.5%.

On to `O=C(N[C@H]1CC[C@H](C(=O)Nc2nc3cc(Cl)ccc3o2)CC1)c1ccc2cc(Cl)ccc2n1` [Compound 99, 6-chloro-N-(trans-4-((5-chlorobenzo[d]oxazol-2-yl)carbamoyl)cyclohexyl)quinoline-2-carboxamide], for which the pIC50 in assay [1] (3 h) is 7.00 to 8.00. The activity at 1 µM in assay [2] (CHO, 2 h) turned out to be 84.8%.

Consider `O=C(NN1CCC(C(=O)Nc2nc3cc(Cl)ccc3o2)CC1)c1ccc2cc(Cl)ccc2n1` [Compound 100, 6-chloro-N-(4-(5-chlorobenzo[d]oxazol-2-ylcarbamoyl)piperidin-1-yl)quinoline-2-carboxamide], for which, in assay [1] (3 h), the pIC50 is 7.00 to 8.00. For the same compound, in assay [2] (CHO, 2 h), the activity at 1 µM is 128%.

For `O=C(COc1ccc(Cl)c(F)c1)NN1CCC(C(=O)Nc2nc3cc(Cl)ccc3s2)CC1` [Compound 116, 1-(2-(4-chloro-3-fluorophenoxy)acetamido)-N-(5-chlorobenzo[d]thiazol-2-yl)piperidine-4-carboxamide], the pIC50 in assay [1] (setting [3]) was 7.00 to 8.00. For the same compound, the activity at 1 µM in assay [2] (setting [4]) worked out at 116%.

Turning to `O=C(N[C@H]1CC[C@H](C(=O)Nc2nc3cc(Cl)ccc3s2)CC1)c1ccc2cc(Cl)ccc2n1` [Compound 118, 6-chloro-N-(trans-4-(5-chlorobenzo[d]thiazol-2-ylcarbamoyl)cyclohexyl)quinoline-2-carboxamide], the pIC50 in assay [1] (setting [3]) was greater than 8.00. The activity at 1 µM in assay [2] (setting [4]) is 109%.

On to `O=C(NN1CCC(C(=O)Nc2nc3cc(Cl)ccc3s2)CC1)c1ccc2cc(Cl)ccc2n1` [Compound 119, 6-chloro-N-(4-(5-chlorobenzo[d]thiazol-2-ylcarbamoyl)piperidin-1-yl)quinoline-2-carboxamide], for which the pIC50 in assay [1] (setting [3]) is greater than 8.00. Moreover, the activity at 1 µM in assay [2] (setting [4]) stood at 118%.

As to `O=C(CO[C@H]1C[C@@H](OC(F)(F)F)C1)N[C@H]1CC[C@H](C(=O)Nc2nc3cc(Cl)ccc3s2)CC1` [Compound 120, trans-N-(5-chlorobenzo[d]thaizol-2-yl)-4-(2-(cis-3-(trifluoromethoxy)cyclobutoxy)acetamido)cyclohexanecarboxamide], the pIC50 in assay [1] (setting [3]) is 7.00 to 8.00. Further, the activity at 1 µM in assay [2] (setting [4]) was 122%.

For `O=C(Nc1ccc2cc(Cl)ccc2n1)C1CCN(NC(=O)[C@H]2C[C@@H](O)c3cc(Cl)ccc3O2)CC1` [Compound 124, 1-((2R,4R)-6-chloro-4-hydroxychroman-2-carboxamido)-N-(6-chloroquinolin-2-yl)piperidine-4-carboxamide], the pIC50 in assay [1] (setting [3]) is greater than 8.00. In assay [2] (setting [4]), the activity at 1 µM was 183%.
